# From US7135466B2 (Kirin Beer Kabushiki Kaisha, priority 1999, dated 2006)
# Read-outs that look alike come from different tables or passages of the source.
# Experiments:
# [1] = target: T1, c-kit (Homo sapiens, UniProt P10721); test: Inhibitory activity against c-kit autophosphorylation (MO7e cells, h-SCF); assay type: cell-based; settings: for IC50: MO7e cells, read-out: c-kit IC50; for inhibition at 1 µM: Mo7e, at 1000 nM
# T1 construct: MO7e (human megakaryocytic leukemia cell line) which had been arrested for 20 hr; endogenous in cells; host or cells: MO7e human megakaryocytic leukemia cell line
# Procedure, shortened: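 Ligand-induced c-kit tyrosine phosphorylation is measured in MO7e cells that were quiesced 20 hr and preincubated with compound for 1 hr prior to a 5 min pulse of 50 ng/ml human SCF. Phospho-c-kit is detected by anti-phosphotyrosine capture ELISA, A450.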
# [2] = target: T2, PDGF-Ra (Homo sapiens, UniProt P16234); test: Inhibitory activity against PDGF-Ra phosphorylation by PDGF-AA stimulation using G292; assay type: cell-based; settings: for IC50: > means inhibition at indicated concentration not more than 50%, < and << not less than 50%, read-out: PDGF (E) IC50; for inhibition at 0.1 µM: G292, at 100 nM, read-out: PDGF (E) inhibition (%) at 100 nM
# T2 construct: host or cells: G-292 human osteosarcoma cells
# Procedure, shortened: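 G-292 human osteosarcoma cells, serum-starved overnight in 0.1% FBS, were pretreated with compound in DMSO for 1 hr at 37 °C, then stimulated with 50 ng/ml PDGF-AA for 5 min. Lysates were captured on anti-phosphotyrosine PY-20 plates and probed with anti-PDGF-Ra plus HRP secondary; absorbance read at 450 nm.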
# [3] = figure within parentheses in −( ) or >1000( )
# [4] = figure within parentheses in >100( )
# [5] = figure in parentheses in >100( )
# T1 sequence (P10721 26-976): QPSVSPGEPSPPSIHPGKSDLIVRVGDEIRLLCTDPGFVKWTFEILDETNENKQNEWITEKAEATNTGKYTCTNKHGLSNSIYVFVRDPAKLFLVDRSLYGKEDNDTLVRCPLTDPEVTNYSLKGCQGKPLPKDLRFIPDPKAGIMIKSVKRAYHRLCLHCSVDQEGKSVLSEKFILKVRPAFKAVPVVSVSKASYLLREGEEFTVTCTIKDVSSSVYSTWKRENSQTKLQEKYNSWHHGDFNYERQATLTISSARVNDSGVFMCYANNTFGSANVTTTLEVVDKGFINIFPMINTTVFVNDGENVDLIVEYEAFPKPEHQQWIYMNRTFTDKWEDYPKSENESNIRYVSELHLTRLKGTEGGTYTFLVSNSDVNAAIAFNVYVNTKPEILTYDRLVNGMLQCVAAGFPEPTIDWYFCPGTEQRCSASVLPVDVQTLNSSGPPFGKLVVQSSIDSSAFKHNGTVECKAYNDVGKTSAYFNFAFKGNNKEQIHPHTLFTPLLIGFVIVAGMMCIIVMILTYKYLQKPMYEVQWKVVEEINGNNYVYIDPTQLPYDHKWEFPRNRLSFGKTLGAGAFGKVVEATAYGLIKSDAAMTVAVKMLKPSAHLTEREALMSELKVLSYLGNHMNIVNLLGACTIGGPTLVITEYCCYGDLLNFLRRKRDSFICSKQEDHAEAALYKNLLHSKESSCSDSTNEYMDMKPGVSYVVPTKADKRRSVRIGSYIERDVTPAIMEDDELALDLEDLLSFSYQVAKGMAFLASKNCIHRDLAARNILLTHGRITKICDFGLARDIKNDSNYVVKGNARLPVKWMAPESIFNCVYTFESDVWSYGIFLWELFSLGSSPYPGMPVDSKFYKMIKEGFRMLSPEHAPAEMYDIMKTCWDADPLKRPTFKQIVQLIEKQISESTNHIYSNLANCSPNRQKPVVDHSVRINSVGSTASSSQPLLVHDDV
# T2 sequence (P16234 24-1089): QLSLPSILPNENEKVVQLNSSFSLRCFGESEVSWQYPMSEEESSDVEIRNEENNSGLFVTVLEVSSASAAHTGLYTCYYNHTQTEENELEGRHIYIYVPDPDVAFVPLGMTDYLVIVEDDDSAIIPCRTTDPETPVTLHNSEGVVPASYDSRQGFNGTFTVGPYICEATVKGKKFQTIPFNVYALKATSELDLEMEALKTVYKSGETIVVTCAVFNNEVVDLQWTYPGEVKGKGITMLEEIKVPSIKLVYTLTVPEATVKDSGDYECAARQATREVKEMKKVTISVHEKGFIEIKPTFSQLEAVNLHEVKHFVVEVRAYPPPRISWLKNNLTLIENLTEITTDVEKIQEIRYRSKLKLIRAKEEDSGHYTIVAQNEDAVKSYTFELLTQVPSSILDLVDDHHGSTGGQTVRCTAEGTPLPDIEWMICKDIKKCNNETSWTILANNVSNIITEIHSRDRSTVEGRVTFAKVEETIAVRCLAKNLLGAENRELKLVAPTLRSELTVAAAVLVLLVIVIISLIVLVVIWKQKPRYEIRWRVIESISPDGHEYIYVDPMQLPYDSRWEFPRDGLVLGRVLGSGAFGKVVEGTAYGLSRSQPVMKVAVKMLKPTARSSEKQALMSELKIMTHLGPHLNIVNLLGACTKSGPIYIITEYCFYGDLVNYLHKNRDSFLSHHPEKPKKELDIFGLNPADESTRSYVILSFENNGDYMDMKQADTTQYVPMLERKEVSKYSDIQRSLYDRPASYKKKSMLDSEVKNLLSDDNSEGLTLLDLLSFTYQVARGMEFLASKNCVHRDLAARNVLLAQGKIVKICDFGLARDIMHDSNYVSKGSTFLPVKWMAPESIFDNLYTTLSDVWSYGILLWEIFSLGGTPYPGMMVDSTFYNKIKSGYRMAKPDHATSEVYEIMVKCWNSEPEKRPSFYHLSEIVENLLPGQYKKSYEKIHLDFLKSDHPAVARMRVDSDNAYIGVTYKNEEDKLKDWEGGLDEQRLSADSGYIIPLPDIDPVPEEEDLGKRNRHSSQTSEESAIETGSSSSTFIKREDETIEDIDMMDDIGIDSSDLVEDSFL
Compound,IC50 ([1]; h-SCF 50 ng/ml),IC50 ([2]; Pharmacological Test Example 1),IC50 [2],further results
"COc1cc2nccc(Oc3ccc(NC(=O)OCCN4CCOCC4)cc3)c2cc1OC [Example 306, 2-Morpholinoethyl N-{4-[(6,7-dimethoxy-4-quinolyl)oxy]phenyl}carbamate]",72 nM,11 nM,–,–
"COc1cc2ncnc(Oc3ccc(NC(=O)OC(C)c4cc(F)c(F)cc4F)cc3)c2cc1OC (centres unmarked) [Example 95, 1-(2,4,5-Trifluorophenyl)ethyl N-{4-[(6,7-dimethoxy-4-quinazolinyl)oxy]phenyl}carbamate]",962 nM,16 nM,–,–
"CCCC1CCC(C(=O)NC(=S)Nc2ccc(Oc3ncnc4cc(OC)c(OC)cc34)cc2)CC1 (centres unmarked) [Example 1197, N-{4-[(6,7-Dimethoxy-4-quinazolinyl)oxy]phenyl}-N′-[(4-propylcyclohexyl)carbonyl]thiourea]",–,–,25 nM,IC50 ([1]; h-SCF stimulation): 219 nM
"COc1cc2nccc(Oc3ccc(NC(=O)OCCCOc4ccc(Cl)cc4)cc3)c2cc1OC [Example 27, 3-(4-Chlorophenoxy)propyl N-{4-[(6,7-dimethoxy-4-quinolyl)oxy]phenyl}carbamate]",76 nM,< 10 nM,–,–
"COc1cc2nccc(Oc3ccc(NC(=O)OCCCSc4cc(C)ccc4C)c(C)c3C)c2cc1OC [Example 170, 3-[(2,5-Dimethylphenyl)sulfanyl]propyl N-{4-[(6,7-dimethoxy-4-quinolyl)oxy]-2,3-dimethylphenyl}carbamate]",34 nM,< 10 nM,–,–
"N-{4-[(6,7-Dimethoxy-4-quinolyl)oxy]-2,3-dimethylphenyl}-N′-[3-(1-piperidinyl)propyl]thiourea [Example 558]",–,–,73 nM,IC50 ([1]; 50 ng/ml h-SCF): 724 nM
"COc1cc2ncnc(Oc3ccc(NC(=S)NC(=O)c4cc(C)oc4C)cc3)c2cc1OC [Example 718, N-{4-[(6,7-Dimethoxy-4-quinazolinyl)oxy]phenyl}-N′-[(2,5-dimethyl-3-furyl)carbonyl]thiourea]",–,–,< 10 nM,"inhibition at 1 µM [1, 3]: 19%"
"COc1cc2nccc(Oc3ccc(NC(=S)NC(=O)Cc4ccc5ccccc5c4)cc3Cl)c2cc1OC [Example 710, N-{3-Chloro-4-[(6,7-dimethoxy-4-quinolyl)oxy]phenyl}-N′-[2-(2-naphthyl)acetyl]thiourea]",–,–,> 100 nM,"inhibition at 1 µM [1, 3]: 30%; inhibition at 0.1 µM [2, 4]: 33%"
"COc1cc2nccc(Oc3cc(C)c(NC(=O)OCc4ccc(F)cc4)cc3C)c2cc1OC [Example 10, 4-Fluorobenzyl N-{4-[(6,7-dimethoxy-4-quinolyl)oxy]-2,5-dimethylphenyl}carbamate]",106 nM,11 nM,–,–
"CCN(CC)CCNC(=O)Nc1ccc(Oc2ccnc3cc(OC)c(OC)cc23)c(C)c1C [Example 624, N-[2-(Diethylamino)ethyl]-N′-{4-[(6,7-dimethoxy-4-quinolyl)oxy]-2,3-dimethylphenyl}urea]",–,–,34 nM,IC50 ([1]; 50 ng/ml h-SCF): 436 nM
"CCN(CC)CCNC(=O)Nc1ccc(Oc2ccnc3cc(OC)c(OC)cc23)c(C)c1 [Example 648, N-[2-(Diethylamino)ethyl]-N′-{4-[(6,7-dimethoxy-4-quinolyl)oxy]-3-methylphenyl}urea]",–,–,16 nM,IC50 ([1]; 50 ng/ml h-SCF): 937 nM
"COc1cc2nccc(Oc3ccc(NC(=O)OCc4ccccc4)cc3)c2cc1OC [Example 231, Benzyl N-{4-[(6,7-dimethoxy-4-quinolyl)oxy]phenyl}carbamate]",86 nM,1 nM,–,–
"COc1cc2nccc(Oc3ccc(OCCCOc4ccccc4F)cc3)c2cc1OC [Example 796, 4-{4-[3-(2-Fluorophenoxy)propoxy]phenoxy}-6,7-dimethoxyquinoline]",–,–,15 nM,IC50 ([1]; 50 ng/ml h-SCF): 394 nM
"COc1ccccc1COC(=O)Nc1ccc(Oc2ncnc3cc(OC)c(OC)cc23)cc1Cl [Example 316, 2-Methoxybenzyl N-{2-chloro-4-[(6,7-dimethoxy-4-quinazolinyl)oxy]phenyl}carbamate]",–,10 nM,–,inhibition at 1 µM ([1]; figure in parentheses in −( )): 40%
"COc1cc2ncnc(Oc3ccc(NC(=S)NC(=O)c4ccccn4)cc3)c2cc1OC [Example 1156, N-{4-[(6,7-Dimethoxy-4-quinazolinyl)oxy]phenyl}-N′-(2-pyridylcarbonyl)thiourea]",–,–,> 100 nM,"inhibition at 1 µM ([1]; figure in parentheses in −( )): 28%; inhibition at 0.1 µM [2, 5]: 35%"
"COc1cc2nccc(Oc3cc(C)c(NC(=O)Oc4ccccc4OC)cc3C)c2cc1OC [Example 278, 2-Methoxyphenyl N-{4-[(6,7-dimethoxy-4-quinolyl)oxy]-2,5-dimethylphenyl}carbamate]",289 nM,53 nM,–,–

Compound,IC50 ([1]; h-SCF 50 ng/ml),IC50 ([2]; Pharmacological Test Example 1),IC50 [2],further results
"COc1cc2nccc(Oc3cc(C)c(NC(=O)OC(C)c4ccccc4Br)cc3C)c2cc1OC (centres unmarked) [Example 114, 1-(2-Bromophenyl)ethyl N-{4-[(6,7-dimethoxy-4-quinolyl)oxy]-2,5-dimethylphenyl}carbamate]",602 nM,65 nM,–,–
"CCCCC(CCCC)OC(=O)Nc1cc(C)c(Oc2ccnc3cc(OC)c(OC)cc23)cc1C [Example 369, 1-Butylpentyl N-{4-[(6,7-dimethoxy-4-quinolyl)oxy]-2,5-dimethylphenyl}carbamate]",–,> 100 nM,–,inhibition at 1 µM ([1]; figure in parentheses in −( )): 36%
"COc1ccccc1COC(=O)Nc1cc(C)c(Oc2ccnc3cc(OC)c(OC)cc23)cc1C [Example 239, 2-Methoxybenzyl N-{4-[(6,7-dimethoxy-4-quinolyl)oxy]-2,5-dimethylphenyl}carbamate]",183 nM,9 nM,–,–
"COc1cc2nccc(Oc3cc(C)c(NC(=O)OCC4CCC4)cc3C)c2cc1OC [Example 386, Cyclobutylmethyl N-{4-[(6,7-dimethoxy-4-quinolyl)oxy]-2,5-dimethylphenyl}carbamate]",105 nM,20 nM,–,–
"COc1cccc(NC(=O)COc2ccc(Oc3ncnc4cc(OC)c(OC)cc34)cc2)c1 [Example 800, N1-(3-Methoxyphenyl)-2-{4-[(6,7-dimethoxy-4-quinazolinyl)oxy]phenoxy}acetamide]",–,–,< 10 nM,IC50 ([1]; 50 ng/ml h-SCF): 30 nM
"COc1cc2ncnc(Oc3ccc(N(C)C(=O)OC4CCCCCC4)cc3)c2cc1OC [Example 494, Cycloheptyl N-{4-[(6,7-dimethoxy-4-quinazolinyl)oxy]phenyl}-N-methylcarbamate]",–,–,16 nM,IC50 ([1]; 50 ng/ml h-SCF): 125 nM
"COc1cc2nccc(Oc3ccc(NC(=O)Oc4cccc(C#N)c4)c(C)c3C)c2cc1OC [Example 459, 3-Cyanophenyl N-{4-[(6,7-dimethoxy-4-quinolyl)oxy]-2,3-dimethylphenyl}carbamate]",–,–,47 nM,IC50 ([1]; 50 ng/ml h-SCF): < 30 nM
"COc1cc2nccc(Oc3ccc(NC(=S)NC(=O)c4ccc(Cl)s4)c(C)c3)c2cc1OC [Example 694, N-[(5-Chloro-2-thienyl)carbonyl]-N′-{4[(6,7-dimethoxy-4-quinolyl)oxy]-2-methylphenyl}thiourea]",–,–,> 100 nM,"inhibition at 1 µM [1, 3]: 37%; inhibition at 0.1 µM [2, 4]: 12%"
"COc1cc2nccc(Oc3cc(C)c(NC(=O)OCCCSc4ccc(Cl)cc4C)cc3C)c2cc1OC [Example 79, 3-[(4-Chloro-2-methylphenyl)sulfanyl]propyl N-{4-[(6,7-dimethoxy-4-quinolyl)oxy]-2,5-dimethylphenyl}carbamate]",123 nM,18 nM,–,–
"COc1cc2nccc(Oc3ccc(NC(=S)NC(=O)c4ccccc4OC)c(Cl)c3)c2cc1OC [Example 1103, N-{2-Chloro-4-[(6,7-dimethoxy-4-quinolyl)oxy]phenyl}-N′-(2-methoxybenzoyl)thiourea]",–,–,> 100 nM,"inhibition at 1 µM ([1]; figure in parentheses in −( )): 3%; inhibition at 0.1 µM [2, 5]: 25%"
"COc1cc2nccc(Oc3ccc(NC(=O)NCCN4CCCC4)cc3)c2cc1OC [Example 618, N-{4-[(6,7-Dimethoxy-4-quinolyl)oxy]phenyl}-N′-(2-tetrahydro-1H-1-pyrrolylethyl)urea]",–,–,< 10 nM,IC50 ([1]; 50 ng/ml h-SCF): 948 nM
"COc1cc2nccc(Oc3ccc(NCCCOc4ccccc4Cl)cc3)c2cc1OC [Example 891, N-[3-(2-Chlorophenoxy)propyl]-N-{4-[(6,7-dimethoxy-4-quinolyl)oxy]phenyl}amine]",–,–,7 nM,IC50 ([1]; h-SCF stimulation): 280 nM
COc1cc2ncnc(Oc3ccc(NC(=O)OC4CCCCC4)c(Cl)c3)c2cc1OC [Example 313],330 nM,< 10 nM,–,–
"COc1cc2ncnc(Oc3ccc(NC(=O)OCCCOc4ccc(Cl)cc4)cc3)c2cc1OC [Example 30, 3-(4-Chlorophenoxy)propyl N-{4-[(6,7-dimethoxy-4-quinazolinyl)oxy]phenyl}carbamate]",< 30 nM,< 10 nM,–,–
"COc1cc2nccc(Oc3ccc(NC(=S)NC(=O)c4ccc(-c5ccccc5)cc4)cc3F)c2cc1OC [Example 991, N-{4-[(6,7-Dimethoxy-4-quinolyl)oxy]-3-fluorophenyl}-N′-(4-phenylbenzoyl)thiourea]",–,–,19 nM,inhibition at 1 µM ([1]; figure in parentheses in −( )): 20%
"COc1cc2ncnc(Oc3ccc(NC(=S)NCCN4CCCCC4)cc3)c2cc1OC [Example 517, N-{4-[(6,7-Dimethoxy-4-quinazolinyl)oxy]phenyl}-N′-[2-(1-piperidinyl)ethyl]thiourea]",–,–,38 nM,"inhibition at 1 µM [1, 3]: 33%"
